Measurements: ChEMBL document CHEMBL1201862, “PubChem BioAssay data set” (2004)
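These data come from cells grown in 96-well plates and exposed to compound for 48 hours at five concentrations. GI50 = concentration required for 50% inhibition of growth.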 Activity calls are given as the source filed them. No stated cut-off is given here; in the data, active = GI50 up to about 1.1 µM and inactive = higher.

Experiments:
Test in all cases: NCI-60 cell line screen, 48 h
786-0 = system: 786-0
A498 = system: A498
A549 = system: A549
ACHN = system: ACHN
BT-549 = system: BT-549
CAKI-1 = system: CAKI-1
CCRF-CEM = system: CCRF-CEM
COLO 205 = system: COLO 205
DLD-1 = system: DLD-1
DMS-114 = system: DMS-114
DMS-273 = system: DMS-273
DU-145 = system: DU-145
EKVX = system: EKVX
HCC 2998 = system: HCC 2998
HCT-116 = system: HCT-116
HCT-15 = system: HCT-15
HL-60 = system: HL-60
HOP-18 = system: HOP-18
HOP-62 = system: HOP-62
HOP-92 = system: HOP-92
HT-29 = system: HT-29
Hs-578T = system: Hs-578T
IGROV-1 = system: IGROV-1
K562 = system: K562
KM-20L2 = system: KM-20L2
KM12 = system: KM12
LOX IMVI = system: LOX IMVI
LXFL 529 = system: LXFL 529
M14 = system: M14
M19-MEL = system: M19-MEL
MCF7 = system: MCF7
MDA-MB-231 = system: MDA-MB-231
MDA-MB-435 = system: MDA-MB-435
MDA-N = system: MDA-N
MOLT-4 = system: MOLT-4
Malme-3M = system: Malme-3M
NCI-H226 = system: NCI-H226
NCI-H23 = system: NCI-H23
NCI-H460 = system: NCI-H460
NCI-H522 = system: NCI-H522
OVCAR-3 = system: OVCAR-3
OVCAR-4 = system: OVCAR-4
OVCAR-5 = system: OVCAR-5
OVCAR-8 = system: OVCAR-8
PC-3 = system: PC-3
RPMI-8226 = system: RPMI-8226
RXF 393 = system: RXF 393
RXF 631 = system: RXF 631
SF-268 = system: SF-268
SF-295 = system: SF-295
SF-539 = system: SF-539
SK-MEL-28 = system: SK-MEL-28
SK-MEL-2 = system: SK-MEL-2
SK-MEL-5 = system: SK-MEL-5
SK-OV-3 = system: SK-OV-3
SN12C = system: SN12C
SNB-19 = system: SNB-19
SNB-75 = system: SNB-75
SNB-78 = system: SNB-78
SR = system: SR
SW-620 = system: SW-620
T47D = system: T47D
TK-10 = system: TK-10
U-251 = system: U-251
UACC-257 = system: UACC-257
UACC-62 = system: UACC-62
UO-31 = system: UO-31
XF498 = system: XF498

Measured: GI50

O=C1C=CC(=O)c2ccc(=O)ccc21
17 µM: HCT-15
active: CCRF-CEM 0.802 µM
inactive: 786-0 17.5 µM | A498 16.9 µM | A549 30.1 µM | ACHN 9.68 µM | BT-549 17.7 µM | CAKI-1 9.25 µM | COLO 205 5.01 µM | DLD-1 4.34 µM | DMS-114 9.16 µM | DMS-273 25.5 µM | DU-145 28.1 µM | EKVX 22.4 µM | HCC 2998 17.2 µM | HCT-116 10.8 µM | HL-60 2.1 µM | HOP-18 19.4 µM | HOP-62 25.9 µM | HOP-92 1.89 µM | HT-29 18.4 µM | Hs-578T 36.6 µM | IGROV-1 18.8 µM | K562 2.4 µM | KM-20L2 22.2 µM | KM12 19.1 µM | LOX IMVI 4.7 µM | LXFL 529 2.54 µM | M14 14.8 µM | M19-MEL 7.55 µM | MCF7 28.8 µM | MDA-MB-231 20.5 µM | MDA-MB-435 21.5 µM | MDA-N 13.3 µM | MOLT-4 1.87 µM | Malme-3M 18.1 µM | NCI-H226 34.8 µM | NCI-H23 19.1 µM | NCI-H460 21.2 µM | NCI-H522 2.09 µM | OVCAR-3 7.85 µM | OVCAR-4 9.29 µM | OVCAR-5 19.9 µM | OVCAR-8 17.5 µM | PC-3 17.8 µM | RPMI-8226 3.15 µM | RXF 393 6.31 µM | RXF 631 14.4 µM | SF-268 17.1 µM | SF-295 13.2 µM | SF-539 21.8 µM | SK-MEL-28 21.4 µM | SK-MEL-2 18.1 µM | SK-MEL-5 19.7 µM | SK-OV-3 24.1 µM | SN12C 17.3 µM | SNB-19 16.9 µM | SNB-75 19.9 µM | SNB-78 25.9 µM | SR 2.02 µM | SW-620 3.74 µM | T47D 2.34 µM | TK-10 17.6 µM | U-251 16.4 µM | UACC-257 17.1 µM | UACC-62 13.7 µM | UO-31 15 µM

COC1=C(OC)CCC(/C(C#N)=C/c2ccc(OC)c(OC)c2)=C1
inactive: 786-0 67.5 µM | A498 > 100 µM | A549 > 100 µM | ACHN > 100 µM | CAKI-1 > 100 µM | CCRF-CEM > 100 µM | COLO 205 95.3 µM | DLD-1 > 100 µM | DMS-114 31.6 µM | DMS-273 49.8 µM | HCC 2998 > 100 µM | HCT-116 > 100 µM | HOP-18 > 100 µM | HOP-62 31.1 µM | HOP-92 49.8 µM | HT-29 80.9 µM | IGROV-1 56.4 µM | K562 48.3 µM | KM-20L2 > 100 µM | KM12 > 100 µM | LOX IMVI > 100 µM | LXFL 529 > 100 µM | M14 > 100 µM | M19-MEL > 100 µM | MOLT-4 > 100 µM | NCI-H226 > 100 µM | NCI-H23 79.1 µM | NCI-H460 > 100 µM | NCI-H522 21.4 µM | OVCAR-3 > 100 µM | OVCAR-4 > 100 µM | OVCAR-5 > 100 µM | OVCAR-8 > 100 µM | RPMI-8226 > 100 µM | RXF 393 36.7 µM | RXF 631 > 100 µM | SF-268 37.2 µM | SF-295 15.9 µM | SF-539 59.3 µM | SK-MEL-28 > 100 µM | SK-MEL-2 85.9 µM | SK-MEL-5 > 100 µM | SK-OV-3 26.4 µM | SN12C > 100 µM | SNB-75 16 µM | SNB-78 53.2 µM | SR 66.7 µM | SW-620 > 100 µM | TK-10 34.2 µM | U-251 34.5 µM | UACC-257 > 100 µM | UACC-62 > 100 µM | UO-31 36.1 µM
> 100 µM: HCT-15

Cc1ccccc1C(C#N)C(=O)C(=O)Nc1cccc(Cl)c1 (stereo unspecified)
inactive: 786-0 37.8 µM | A498 > 100 µM | A549 > 100 µM | ACHN > 100 µM | CAKI-1 > 100 µM | CCRF-CEM 39.4 µM | COLO 205 58.3 µM | DLD-1 > 100 µM | DMS-114 54.6 µM | DMS-273 > 100 µM | EKVX > 100 µM | HCC 2998 > 100 µM | HCT-116 > 100 µM | HL-60 91.4 µM | HOP-62 > 100 µM | HOP-92 > 100 µM | HT-29 > 100 µM | IGROV-1 > 100 µM | K562 32.2 µM | KM-20L2 > 100 µM | KM12 > 100 µM | LOX IMVI 19.1 µM | M14 > 100 µM | M19-MEL 26.4 µM | MOLT-4 > 100 µM | Malme-3M > 100 µM | NCI-H226 > 100 µM | NCI-H23 > 100 µM | NCI-H460 61.5 µM | NCI-H522 58.5 µM | OVCAR-3 > 100 µM | OVCAR-5 > 100 µM | OVCAR-8 > 100 µM | RPMI-8226 27.2 µM | RXF 393 > 100 µM | RXF 631 > 100 µM | SF-268 > 100 µM | SF-295 > 100 µM | SF-539 > 100 µM | SK-MEL-28 > 100 µM | SK-MEL-2 > 100 µM | SK-MEL-5 > 100 µM | SK-OV-3 > 100 µM | SN12C > 100 µM | SNB-19 > 100 µM | SNB-75 > 100 µM | SNB-78 > 100 µM | SW-620 15.7 µM | TK-10 > 100 µM | U-251 > 100 µM | UACC-257 > 100 µM | UACC-62 > 100 µM | UO-31 > 100 µM | XF498 71.4 µM
> 100 µM: HCT-15

C[C@@H]1CC2(N=CCS2)[C@]2(O)O[C@@H]3C[C@@]4(C)[C@H](C[C@H]3O[C@@H]2O1)C[C@H]1O[C@]12[C@@H]4[C@H](O)C(=O)[C@]1(C)C(C3=CC(=O)OC3)CC[C@]21O (stereo partly specified)
active: 786-0 < 0.01 µM | A498 0.0138 µM | ACHN < 0.01 µM | CAKI-1 0.011 µM | CCRF-CEM < 0.01 µM | COLO 205 0.0304 µM | DLD-1 < 0.01 µM | DMS-114 < 0.01 µM | DMS-273 < 0.01 µM | HCC 2998 0.0281 µM | HCT-116 < 0.01 µM | HL-60 0.0123 µM | HOP-62 < 0.01 µM | HOP-92 0.0306 µM | IGROV-1 0.0254 µM | K562 0.0194 µM | LOX IMVI 0.0114 µM | LXFL 529 < 0.01 µM | M14 0.0227 µM | M19-MEL 0.0282 µM | MOLT-4 < 0.01 µM | Malme-3M 0.0129 µM | NCI-H226 0.0292 µM | NCI-H23 < 0.01 µM | NCI-H522 < 0.01 µM | OVCAR-4 < 0.01 µM | RPMI-8226 0.022 µM | RXF 631 0.0251 µM | SF-268 < 0.01 µM | SF-539 < 0.01 µM | SK-MEL-28 0.0255 µM | SK-MEL-2 0.0264 µM | SK-OV-3 0.0314 µM | SN12C < 0.01 µM | SNB-75 0.0289 µM | SNB-78 0.0132 µM | SR < 0.01 µM | UACC-62 0.0229 µM | UO-31 0.0284 µM | XF498 0.0187 µM
